For orientation: pEC50 means the negative decadic logarithm of the EC50, by convention in mol/L. By CC50 is commonly meant the concentration giving 50% cytotoxicity.

pEC50: −log10 of the molar value. Read-outs that look alike come from different tables or passages of the source. Some results are limits rather than exact numbers.

Data set [1] has as its system RSV (RSV A2 ECACC, 0709161v). The experiment in a line: RSV plaque reduction assay. Type of data set: cell-based, respiratory syncytial virus. The settings on record: mean of at least two experiments unless noted (n = 1). Put shortly: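 Eight-point compound dilutions were premixed with RSV A2 (100 PFU/well) and applied to confluent Hep-G2 cells for 2 h, followed by a 2-day incubation at 37° C. under compound-containing 0.8% CMC overlay. EC50 comes from immunostained plaque counts relative to untreated virus wells, averaged over ≥2 runs.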
(Plaques are areas of infected cells; plaque reduction assays count them against a control.)

A short description of the next data set: cell toxicity CC50. Type of data set: cell-based. As to conditions: human; Hep-G2 cells; mean of at least two experiments; read-out: Cell Cytotoxicity CC50.
Setting [2] is: human respiratory syncytial virus, HepG2, read-out: RSV A2 Plaque EC50, RSV A2 in Hep-G2 cells.

For `Cc1c(-c2nn3c(c2C(=O)N[C@H]2N=C(c4ccccc4)c4cccc(F)c4NC2=O)O[C@H](C)CC3)cnn1C` [Example 121, (5R)-2-(1,5-Dimethylpyrazol-4-yl)-N-[(3S)-9-fluoro-2-oxo-5-phenyl-1,3-dihydro-1,4-benzodiazepin-3-yl]-5-methyl-6,7-dihydro-5H-pyrazolo[5,1-b][1,3]oxazine-3-carboxamide], the pEC50 in data set [1] (setting [2]) is 6.43. Besides, the cytotoxic concentration (CC50) in “cell toxicity CC50” was > 25000 nM.
The corresponding values for `C[C@@H]1CCn2nc(-c3cncc(Cl)c3)c(C(=O)N[C@H]3N=C(c4ccccc4)c4cccc(F)c4NC3=O)c2O1` [Example 47, (5R)-2-(5-Chloropyridin-3-yl)-5-methyl-N-[(3S)-9-fluoro-2-oxo-5-phenyl-1,3-dihydro-1,4-benzodiazepin-3-yl]-6,7-dihydro-5H-pyrazolo[5,1-b][1,3]oxazine-3-carboxamide] are 7.08 and > 25000 nM.
For `CC1(C)COc2c(C(=O)N[C@H]3N=C(c4ccccc4)c4cccc(F)c4NC3=O)c(-c3ccccc3F)nn2C1` [Example 41, N-[(3S)-9-fluoro-2-oxo-5-phenyl-1,3-dihydro-1,4-benzodiazepin-3-yl]-2-(2-fluorophenyl)-6,6-dimethyl-5,7-dihydropyrazolo[5,1-b][1,3]oxazine-3-carboxamide], in that order: 7.54 and > 25000 nM.
For `C[C@H]1CCn2nc(-c3ccncc3F)c(C(=O)N[C@H]3N=C(c4ccccc4)c4cccc(F)c4NC3=O)c2O1` [Example 76, (5S)-N-[(3S)-9-fluoro-2-oxo-5-phenyl-1,3-dihydro-1,4-benzodiazepin-3-yl]-2-(3-fluoropyridin-4-yl)-5-methyl-6,7-dihydro-5H-pyrazolo[5,1-b][1,3]oxazine-3-carboxamide], in that order: 7.03 and > 25000 nM.
As for `COCC1CCn2nc(-c3ccccc3F)c(C(=O)N[C@H]3N=C(c4ccccc4)c4cccc(F)c4NC3=O)c2O1` (single isomer, unassigned) [Example 191-1, (5R*)-N-[(3S)-9-fluoro-2-oxo-5-phenyl-1,3-dihydro-1,4-benzodiazepin-3-yl]-2-(2-fluorophenyl)-5-(methoxymethyl)-6,7-dihydro-5H-pyrazolo[5,1-b][1,3]oxazine-3-carboxamide], the pEC50 in data set [1] (read-out: RSV A2 Plaque EC50, RSV A2 in Hep-G2 cells) was 7.08. Besides, the cytotoxic concentration (CC50) in the data set “cell toxicity CC50” is > 25000 nM.
Consider `CCc1ncc(-c2nn3c(c2C(=O)N[C@H]2N=C(c4ccccc4)c4cccc(F)c4NC2=O)O[C@H](C)CC3)cn1` [Example 60, (5R)-2-(2-Ethylpyrimidin-5-yl)-N-[(3S)-9-fluoro-2-oxo-5-phenyl-1,3-dihydro-1,4-benzodiazepin-3-yl]-5-methyl-6,7-dihydro-5H-pyrazolo[5,1-b][1,3]oxazine-3-carboxamide], for which, in data set [1] (setting [2]), the pEC50 is 6.78. Besides, the half-maximal cytotoxic concentration (CC50) in “cell toxicity CC50” was > 25000 nM.
For `O=C(N[C@H]1N=C(c2ccccc2)c2cccc(F)c2NC1=O)c1c(-c2ccccc2F)nn2c1OCC1(CC1)C2` [Example 13], in that order: 7.55 and > 24000 nM.
Regarding `O=C(N[C@H]1N=C(c2ccccc2)c2cccc(F)c2NC1=O)c1c(-c2ccccc2F)nn2c1OCC(O)C2` (stereo partly drawn) [Example 160, 2-(2-Fluorophenyl)-6-hydroxy-N-[(3S)-9-fluoro-2-oxo-5-phenyl-1,3-dihydro-1,4-benzodiazepin-3-yl]-6,7-dihydro-5H-pyrazolo[5,1-b][1,3]oxazine-3-carboxamide], the negative logarithm of the EC50 (pEC50) in data set [1] (setting [2]) is 6.83. Moreover, the CC50 in “cell toxicity CC50” was > 25000 nM.
For `C[C@@H]1CCn2nc(-c3ccoc3)c(C(=O)N[C@H]3N=C(c4ccccc4)c4ccccc4NC3=O)c2O1` [Example 62, (5R)-2-(3-Furyl)-5-methyl-N-[(3S)-2-oxo-5-phenyl-1,3-dihydro-1,4-benzodiazepin-3-yl]-6,7-dihydro-5H-pyrazolo[5,1-b][1,3]oxazine-3-carboxamide], in that order: 6.72 and > 25000 nM.
The corresponding values for `C[C@@H]1CCn2nc(-c3ccc(S(=O)(=O)N(C)C)cc3F)c(C(=O)N[C@H]3N=C(c4ccccc4)c4cccc(F)c4NC3=O)c2O1` [Example 200, (5R)-2-[4-(Dimethylsulfamoyl)-2-fluorophenyl]-N-[(3S)-9-fluoro-2-oxo-5-phenyl-1,3-dihydro-1,4-benzodiazepin-3-yl]-5-methyl-6,7-dihydro-5H-pyrazolo[5,1-b][1,3]oxazine-3-carboxamide] are 9.00 and > 25000 nM.
On to `CC1(Cn2cc(-c3nn4c(c3C(=O)N[C@H]3N=C(c5ccccc5)c5cccc(F)c5NC3=O)OCCC4)cn2)COC1` [Example 104, N-[(3S)-9-fluoro-2-oxo-5-phenyl-1,3-dihydro-1,4-benzodiazepin-3-yl]-2-[1-[(3-methyloxetan-3-yl)methyl]pyrazol-4-yl]-6,7-dihydro-5H-pyrazolo[5,1-b][1,3]oxazine-3-carboxamide], for which the pEC50 in data set [1] (setting [2]) was 6.89. Besides, the CC50 in “cell toxicity CC50” is > 25000 nM.
For `O=C(N[C@H]1N=C(c2ccccc2)c2cccc(F)c2NC1=O)c1c(-c2ccccc2F)nn2c1OC(CN1CCCC1)CC2` (stereo partly drawn) [Example 187, N-[(3S)-9-fluoro-2-oxo-5-phenyl-1,3-dihydro-1,4-benzodiazepin-3-yl]-2-(2-fluorophenyl)-5-(pyrrolidin-1-ylmethyl)-6,7-dihydro-5H-pyrazolo[5,1-b][1,3]oxazine-3-carboxamide], in that order: 6.60 and > 8840 nM.
For `C[C@@H]1CCn2nc(-c3ccc(CN(C)C)cc3F)c(C(=O)N[C@H]3N=C(c4ccccc4)c4cccc(F)c4NC3=O)c2O1` [Example 170, (5R)-2-[4-[(Dimethylamino)methyl]-2-fluorophenyl]-N-[(3S)-9-fluoro-2-oxo-5-phenyl-1,3-dihydro-1,4-benzodiazepin-3-yl]-5-methyl-6,7-dihydro-5H-pyrazolo[5,1-b][1,3]oxazine-3-carboxamide], in that order: 7.22 and > 25000 nM.
For `O=C(N[C@H]1N=C(c2ccccc2)c2cccc(F)c2NC1=O)c1c(-c2ccc(CN3CCOCC3)cc2F)nn2c1OCCC2` [Example 101, 2-[2-Fluoro-4-(morpholin-4-ylmethyl)phenyl]-N-[(3S)-9-fluoro-2-oxo-5-phenyl-1,3-dihydro-1,4-benzodiazepin-3-yl]-6,7-dihydro-5H-pyrazolo[5,1-b][1,3]oxazine-3-carboxamide], the pEC50 in data set [1] (setting [2]) was 6.91. Also, the cytotoxic concentration (CC50) in “cell toxicity CC50” is > 25000 nM.
For `O=C(N[C@H]1N=C(c2ccccc2)c2cccc(F)c2NC1=O)c1c(-c2ccccc2F)nn2c1OCC(CN1CCC(F)(F)C1)C2` (stereo partly drawn) [Example 186, 6-[(3,3-Difluoropyrrolidin-1-yl)methyl]-N-[(3S)-9-fluoro-2-oxo-5-phenyl-1,3-dihydro-1,4-benzodiazepin-3-yl]-2-(2-fluorophenyl)-6,7-dihydro-5H-pyrazolo [5,1-b][1,3]oxazine-3-carboxamide], in that order: 7.23 and > 25000 nM.
As to `O=C(N[C@H]1N=C(c2ccccc2)c2ccccc2NC1=O)c1c(-c2ccccc2)nn2c1OCC1(COC1)C2` [Example 28, N-[(3S)-2-oxo-5-phenyl-1,3-dihydro-1,4-benzodiazepin-3-yl]-2-phenylspiro[5,7-dihydropyrazolo[5,1-b][1,3]oxazine-6,3′-oxetane]-3-carboxamide], the pEC50 in data set [1] (setting [2]) was 7.12. Besides, the 50% cytotoxic concentration (CC50) in the data set “cell toxicity CC50” was > 25000 nM.
With `CC1CCn2nc(Cc3ccccc3)c(C(=O)N[C@H]3N=C(c4ccccc4)c4cccc(F)c4NC3=O)c2O1` (stereo in doubt) [Example 109, (5S)-2-Benzyl-N-[(3S)-9-fluoro-2-oxo-5-phenyl-1,3-dihydro-1,4-benzodiazepin-3-yl]-5-methyl-6,7-dihydro-5H-pyrazolo[5,1-b][1,3]oxazine-3-carboxamide], the negative-log EC50 (pEC50) in data set [1] (setting [2]) was 6.94. Further, in the data set “cell toxicity CC50”, the CC50 was > 25000 nM.
Consider `CC(C)n1cc(-c2nn3c(c2C(=O)N[C@H]2N=C(c4ccccc4)c4cccc(F)c4NC2=O)OCCC3)cn1` [Example 148, N-[(3S)-9-fluoro-2-oxo-5-phenyl-1,3-dihydro-1,4-benzodiazepin-3-yl]-2-(1-propan-2-ylpyrazol-4-yl)-6,7-dihydro-5H-pyrazolo[5,1-b][1,3]oxazine-3-carboxamide], for which the pEC50 in data set [1] (setting [2]) was 7.14. In addition, in the data set “cell toxicity CC50”, the CC50 is > 25000 nM.
For `CCC1COc2c(C(=O)N[C@H]3N=C(c4ccccc4)c4cccc(F)c4NC3=O)c(-c3ccccc3F)nn2C1` (stereo partly drawn) [Example 11, 6-Ethyl-N-[(3S)-9-fluoro-2-oxo-5-phenyl-2,3-dihydro-1H-1,4-benzodiazepin-3-yl]-2-(2-fluorophenyl)-5H,6H,7H-pyrazolo[3,2-b][1,3]oxazine-3-carboxamide], in that order: 7.48 and > 25000 nM.
The corresponding values for `CC1(C)CCn2nc(-c3ccccc3F)c(C(=O)N[C@H]3N=C(c4ccccc4)c4cccc(F)c4NC3=O)c2O1` [Example 5, N-[(3S)-9-fluoro-2-oxo-5-phenyl-2,3-dihydro-1H-1,4-benzodiazepin-3-yl]-2-(2-fluorophenyl)-5,5-dim ethyl-5H,6H,7H-pyrazolo[3,2-b][1,3]oxazine-3 carboxamide] are 7.27 and > 25000 nM.
For `CC1CCOc2c(C(=O)N[C@H]3N=C(c4ccccc4)c4cccc(F)c4NC3=O)c(-c3ccccc3F)nn21` (stereo partly drawn) [Example 105, N-[(3S)-9-fluoro-2-oxo-5-phenyl-1,3-dihydro-1,4-benzodiazepin-3-yl]-2-(2-fluorophenyl)-7-methyl-6,7-dihydro-5H-pyrazolo[5,1-b][1,3]oxazine-3-carboxamide], in that order: 7.32 and > 25000 nM.

For the origin of these results see patent US12678446B2 (PFIZER INC., priority 2020, dated 2026).
